This is an account of results in the supplement of paper PMC10307832.

What all share (test): relative viability (nuclei count vs DMSO), 5 days (fraction); higher = more cells survive
Compound in experiment [1]: CN(C)C(=N)NC(=N)N [Metformin] + CS(=O)(=O)N1CCN(Cc2cc3nc(-c4cccc5[nH]ncc45)nc(N4CCOCC4)c3s2)CC1 [Pictilisib] (partner 1 µM)
The gist of the method: (§1)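 Five library-drug doses in √10 steps were combined with a fixed anchor-drug dose, or a single drug was given alone, by pin tool to lung cancer cell lines in 1536-well plates the day after seeding. Nuclei were stained and counted after 5 days. Relative viability is the nuclei count in treated wells over that in vehicle wells, taken as the median of duplicate plates.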

Compound in experiment [2]: CN(C)C(=N)NC(=N)N [Metformin] + CC(C)C[C@H](NC(=O)[C@H](Cc1ccccc1)NC(=O)c1cnccn1)B(O)O [Bortezomib] (partner 0.002 µM)
Summed up: as §1

Compound in experiment [3]: N#CC1(c2ccc(NC(=O)c3cccnc3NCc3ccncc3)cc2)CCCC1 [Apatinib] + Cc1nc(Nc2ncc(C(=O)Nc3c(C)cccc3Cl)s2)cc(N2CCN(CCO)CC2)n1 [Dasatinib] (partner 0.075 µM)
Summed up: as §1

Compound in experiment [4]: CN(C)C(=N)NC(=N)N [Metformin] + O=C(c1cc(Cc2n[nH]c(=O)c3ccccc23)ccc1F)N1CCN(C(=O)C2CC2)CC1 [Olaparib] (partner 8 µM)
Summed up: as §1

Turning to PC-3 [JPC-3], the relative viability in experiment [1] (first compound 10 µM) is 0.773; in experiment [1] (first compound 31.62 µM), 0.728; in experiment [1] (first compound 100 µM), 0.771; in experiment [1] (first compound 316.23 µM), 0.751; in experiment [1] (first compound 1000 µM) it was 0.709; in experiment [2] (first compound 10 µM), 0.702. The relative viability amounted to 0.865 in experiment [2] (first compound 31.62 µM); 0.772 in experiment [2] (first compound 100 µM); 0.862 in experiment [2] (first compound 316.23 µM); 0.833 in experiment [2] (first compound 1000 µM); 0.988 in experiment [3] (first compound 0.08 µM); 0.943 in experiment [3] (first compound 0.253 µM). The relative viability amounted to 0.88 in experiment [3] (first compound 0.8 µM); 0.83 in experiment [3] (first compound 2.53 µM); 0.879 in experiment [3] (first compound 8 µM); 0.95 in experiment [4] (first compound 10 µM); 0.932 in experiment [4] (first compound 31.62 µM); 0.741 in experiment [4] (first compound 316.23 µM). Besides, in experiment [4] (first compound 1000 µM), the relative viability stood at 0.69.
As for PC-14, the relative viability in experiment [1] (first compound 10 µM) was 0.577; in experiment [1] (first compound 31.62 µM), 0.811; in experiment [1] (first compound 100 µM), 0.654; in experiment [1] (first compound 316.23 µM), 0.734; in experiment [1] (first compound 1000 µM), 0.776; in experiment [2] (first compound 10 µM), 0.818. For the same cell line, the relative viability in experiment [2] (first compound 31.62 µM) came to 0.943; in experiment [2] (first compound 100 µM), 0.767; in experiment [2] (first compound 316.23 µM) it was 0.906; in experiment [2] (first compound 1000 µM) it was 0.82; in experiment [3] (first compound 0.08 µM), 0.284; in experiment [3] (first compound 0.253 µM), 0.238. For the same cell line, the relative viability in experiment [3] (first compound 0.8 µM) stood at 0.203; in experiment [3] (first compound 2.53 µM), 0.208; in experiment [3] (first compound 8 µM), 0.178; in experiment [4] (first compound 10 µM), 0.233; in experiment [4] (first compound 31.62 µM), 0.247; in experiment [4] (first compound 100 µM), 0.259. Besides, the relative viability turned out to be 0.225 in experiment [4] (first compound 316.23 µM) and 0.222 in experiment [4] (first compound 1000 µM).
Turning to RERF-LC-KJ, the relative viability in experiment [1] (first compound 10 µM) was 0.57; in experiment [1] (first compound 31.62 µM), 0.55; in experiment [1] (first compound 100 µM) it was 0.53; in experiment [1] (first compound 316.23 µM), 0.402; in experiment [1] (first compound 1000 µM), 0.614; in experiment [2] (first compound 10 µM), 1.14. Besides, the relative viability was 1.15 in experiment [2] (first compound 31.62 µM); 1.1 in experiment [2] (first compound 100 µM); 1.01 in experiment [2] (first compound 316.23 µM); 0.988 in experiment [2] (first compound 1000 µM); 0.859 in experiment [3] (first compound 0.08 µM); 0.897 in experiment [3] (first compound 0.253 µM). Further, the relative viability in experiment [3] (first compound 0.8 µM) was found to be 0.754; in experiment [3] (first compound 2.53 µM), 0.615; in experiment [3] (first compound 8 µM), 0.52; in experiment [4] (first compound 10 µM) it was 0.651; in experiment [4] (first compound 31.62 µM), 0.715; in experiment [4] (first compound 100 µM) it was 0.757. The relative viability was 0.625 in experiment [4] (first compound 316.23 µM) and 0.63 in experiment [4] (first compound 1000 µM).
For SK-LU-1, the relative viability in experiment [1] (first compound 10 µM) is 0.543; in experiment [1] (first compound 31.62 µM) it was 0.554; in experiment [1] (first compound 100 µM), 0.674; in experiment [1] (first compound 316.23 µM), 0.685; in experiment [1] (first compound 1000 µM), 0.719; in experiment [2] (first compound 10 µM), 1.45. Further, the relative viability was 1.2 in experiment [2] (first compound 31.62 µM); 1.1 in experiment [2] (first compound 100 µM); 1.06 in experiment [2] (first compound 316.23 µM); 1.27 in experiment [2] (first compound 1000 µM); 0.182 in experiment [3] (first compound 0.08 µM); 0.207 in experiment [3] (first compound 0.253 µM). Further, the relative viability in experiment [3] (first compound 0.8 µM) was determined as 0.184; in experiment [3] (first compound 2.53 µM), 0.167; in experiment [3] (first compound 8 µM) it was 0.175; in experiment [4] (first compound 10 µM), 0.356; in experiment [4] (first compound 31.62 µM), 0.375; in experiment [4] (first compound 100 µM), 0.502. In addition, the relative viability came out at 0.389 in experiment [4] (first compound 316.23 µM) and 0.398 in experiment [4] (first compound 1000 µM).
For the cell line SW 1573, the relative viability in experiment [1] (first compound 10 µM) was found to be 0.534; in experiment [1] (first compound 31.62 µM), 0.42; in experiment [1] (first compound 100 µM), 0.521; in experiment [1] (first compound 316.23 µM) it was 0.498; in experiment [1] (first compound 1000 µM), 0.497; in experiment [2] (first compound 10 µM) it was 1.19. In addition, the relative viability in experiment [2] (first compound 31.62 µM) is 1.15; in experiment [2] (first compound 100 µM), 0.963; in experiment [2] (first compound 316.23 µM), 1; in experiment [2] (first compound 1000 µM), 1.36; in experiment [3] (first compound 0.08 µM) it was 0.454; in experiment [3] (first compound 0.253 µM), 0.624. Besides, the relative viability in experiment [3] (first compound 0.8 µM) was 0.393; in experiment [3] (first compound 2.53 µM), 0.351; in experiment [3] (first compound 8 µM), 0.458; in experiment [4] (first compound 10 µM), 0.441; in experiment [4] (first compound 31.62 µM), 0.468; in experiment [4] (first compound 100 µM), 0.471. Also, the relative viability in experiment [4] (first compound 316.23 µM) amounted to 0.381; in experiment [4] (first compound 1000 µM), 0.352.
Consider UMC-11, for which the relative viability in experiment [1] (first compound 10 µM) was determined as 0.864; in experiment [1] (first compound 31.62 µM), 0.972; in experiment [1] (first compound 100 µM), 0.806; in experiment [1] (first compound 316.23 µM), 0.716; in experiment [1] (first compound 1000 µM), 0.902; in experiment [2] (first compound 10 µM) it was 0.56. The relative viability in experiment [2] (first compound 31.62 µM) is 0.914; in experiment [2] (first compound 100 µM) it was 0.791; in experiment [2] (first compound 316.23 µM), 0.694; in experiment [2] (first compound 1000 µM) it was 0.618; in experiment [3] (first compound 0.08 µM) it was 0.518; in experiment [3] (first compound 0.253 µM), 0.515. In addition, the relative viability in experiment [3] (first compound 0.8 µM) was 0.42; in experiment [3] (first compound 2.53 µM), 0.442; in experiment [3] (first compound 8 µM) it was 0.394; in experiment [4] (first compound 10 µM), 0.337; in experiment [4] (first compound 31.62 µM), 0.269; in experiment [4] (first compound 100 µM), 0.31. For the same cell line, the figures for the relative viability in experiment [4] (first compound 316.23 µM) and in experiment [4] (first compound 1000 µM) were 0.332 and 0.276, respectively.
